Test results published in patent publication US20250340551A1, “SMALL MOLECULE MODULATORS OF STAT6” (Gilead Sciences, Inc., priority 2024, published 2025).

target: human STAT6 (Homo sapiens (Human), UniProt P42226); assay: Surface plasmon resonance assay (Biacore 8K, binding to immobilized STAT6); details: human STAT6 aa122-658, N-terminal His-tag, CM5 chip, 25° C.; geometric mean; read-out: STAT6 SPR Kd
Method in brief: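 Run at 25° C with His-tagged STAT6 aa122-658 (insect-cell expressed) amine-coupled to a CM5 chip, reference-subtracted, in PBS-P+ with 2% DMSO. Multi-cycle kinetics: 60 sec. contact, up to 300 sec. dissociation. Affinity fitted from late report-point binding isotherms, with Rmax both free and fixed to theoretical 1:1.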

Chain of human STAT6 (P42226 122-658): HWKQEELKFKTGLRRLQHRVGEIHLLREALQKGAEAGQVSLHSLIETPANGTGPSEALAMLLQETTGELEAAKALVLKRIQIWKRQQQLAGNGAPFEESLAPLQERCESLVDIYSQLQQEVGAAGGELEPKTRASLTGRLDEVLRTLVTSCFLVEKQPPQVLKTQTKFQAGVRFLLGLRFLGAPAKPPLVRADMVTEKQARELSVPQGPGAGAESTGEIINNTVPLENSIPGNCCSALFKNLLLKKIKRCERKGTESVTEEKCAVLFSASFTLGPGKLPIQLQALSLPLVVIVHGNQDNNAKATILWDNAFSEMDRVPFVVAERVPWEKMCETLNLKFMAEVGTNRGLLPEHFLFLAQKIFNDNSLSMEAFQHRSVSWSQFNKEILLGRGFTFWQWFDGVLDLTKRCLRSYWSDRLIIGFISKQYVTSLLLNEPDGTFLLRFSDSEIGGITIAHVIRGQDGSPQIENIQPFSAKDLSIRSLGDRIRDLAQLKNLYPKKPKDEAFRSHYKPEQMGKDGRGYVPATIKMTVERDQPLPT

Point of comparison: `[2H]C([2H])([2H])N(C(=O)c1ccc(C2CCN(Cc3cc4c(-c5ccc(N)nc5OC)ccnc4n3C)CC2)cc1)C([2H])([2H])[2H]` [Example 1k23, 4-[1-[[4-(6-Amino-2-methoxy-3-pyridyl)-1-methyl-pyrrolo[2,3-b]pyridin-2-yl]methyl]-4-piperidyl]-N,N-bis(trideuteriomethyl)benzamide], Kd 25.5 nM. Against it:
- [2H]C([2H])([2H])N(C(=O)c1ccc(C2=CCN(C(C)c3cc4c(-c5ccc(N)nc5C#N)ccnc4n3C)CC2)cc1)C([2H])([2H])[2H] (stereo in doubt) [Example 1af24, (S)-4-(1-(1-(4-(6-amino-2-cyanopyridin-3-yl)-1-methyl-1H-pyrrolo[2,3-b]pyridin-2-yl)ethyl)-1,2,3,6-tetrahydropyridin-4-yl)-N,N-bis(methyl-d3)benzamide] — 2-fold higher, 51.3 nM
- 4-(1-((4-(6-Amino-5-methoxypyridin-3-yl)-1-methyl-1H-pyrrolo[2,3-b]pyridin-2-yl)methyl)piperidin-4-yl)-N,N-dimethylbenzamide [Example 1k7] — 33-fold higher, 835 nM
- Cc1cc(C(=O)N(C)C)ccc1C1CCN([C@@H](C)c2cc3c(-c4ccc(N)nc4C#N)ccnc3n2C)CC1 [Example 1af27, (S)-4-(1-(1-(4-(6-Amino-2-cyanopyridin-3-yl)-1-methyl-1H-pyrrolo[2,3-b]pyridin-2-yl)ethyl)piperidin-4-yl)-N,N,3-trimethylbenzamide] — 2.6-fold higher, 66.5 nM
- C[C@@H]1CN(c2ccc(C(=O)N(C)C)cc2)CCN1Cc1cc2c(-c3ccc(N)nc3)ccnc2n1C [Example 1n4, 4-[(3R)-4-[[4-(6-amino-3-pyridyl)-1-methyl-pyrrolo[2,3-b]pyridin-2-yl]methyl]-3-methyl-piperazin-1-yl]-N,N-dimethyl-benzamide] — 5.8-fold higher, 147 nM
- Cc1cc(N)nc(C)c1-c1ccnc2c1cc(CN1CCC(c3ccc(C(=O)N(C)C)cc3)CC1)n2C [Example 1k65, 4-[1-[[4-(6-Amino-2,4-dimethyl-3-pyridyl)-1-methyl-pyrrolo[2,3-b]pyridin-2-yl]methyl]-4-piperidyl]-N,N-dimethyl-benzamide] — 10-fold higher, 254 nM
- CNc1ccc(-c2ccnc3c2cc(CN2CCC(c4ccc(C(=O)N(C)C)cc4)CC2)n3CC(C)(C)C)cn1 [Example 1x3, 4-[1-[[1-(2,2-Dimethylpropyl)-4-[6-(methylamino)-3-pyridyl]pyrrolo[2,3-b]pyridin-2-yl]methyl]-4-piperidyl]-N,N-dimethyl-benzamide] — 210-fold higher, 5280 nM
- CNc1cc(C)c(-c2ccnc3c2cc(CN2CCN(c4ccc(C(=O)N(C)C)cc4)CC2)n3C)cn1 [Example 1n8, N,N-Dimethyl-4-[4-[[1-methyl-4-[4-methyl-6-(methylamino)-3-pyridyl]pyrrolo[2,3-b]pyridin-2-yl]methyl]piperazin-1-yl]benzamide] — 100-fold higher, 2600 nM
- CNC(=O)c1ccc(-c2ccnc3c2cc(CN2CCC(c4ccc(C(=O)N(C)C)cc4)CC2)n3C)cc1 [Example 1j7, 4-[2-[[4-[4-(Dimethylcarbamoyl)phenyl]-1-piperidyl]methyl]-1-methyl-pyrrolo[2,3-b]pyridin-4-yl]-N-methyl-benzamide] — 140-fold higher, 3450 nM
- CN(C)C(=O)c1ccc([C@@H]2CCN(Cc3cc4c(-c5ccc(N)nc5)ccnc4n3C)C(=O)C2)cc1 [Example 1ae4, (R)—N,N-Dimethyl-4-[1-[[4-(6-amino-3-pyridyl)-1-methyl-pyrrolo[2,3-b]pyridin-2-yl]methyl]-2-oxo-4-piperidyl]benzamide] — within 1.5-fold, 24.5 nM
- CNc1ccc(-c2ccnc3c2cc(CN2CC[C@@H](c4ccc(C(=O)N(C)C)cc4)[C@H](F)C2)n3C)cn1 (single isomer, unassigned) [Example 1s25] — within 1.5-fold, 35.3 nM
- CN(C)C(=O)c1ccc(C2CCN(Cc3cc4c(-c5ncc(N)cc5F)ccnc4n3C)CC2)cc1 [Example 1k72, 4-[1-[[4-(5-Amino-3-fluoro-2-pyridyl)-1-methyl-pyrrolo[2,3-b]pyridin-2-yl]methyl]-4-piperidyl]-N,N-dimethyl-benzamide] — 2.9-fold higher, 75.1 nM
- CN(C)C(=O)c1ccc(C2CCN(Cc3cc4c(-c5ccc(N)nc5CO)ccnc4n3C)CC2)cc1 [Example 1k58, 4-[1-[[4-[6-Amino-2-(hydroxymethyl)-3-pyridyl]-1-methyl-pyrrolo[2,3-b]pyridin-2-yl]methyl]-4-piperidyl]-N,N-dimethyl-benzamide] — 2.4-fold higher, 60.8 nM
- C[C@H]1C[C@H](c2ccc(C(=O)N(C)C)cc2)CCN1Cc1cc2c(-c3ccc(N)cn3)ccnc2n1C (stereo in doubt) [Example 1q8, N,N-dimethyl-4-[(2S,4R)-1-[[4-(5-amino-2-pyridyl)-1-methyl-pyrrolo[2,3-b]pyridin-2-yl]methyl]-2-methyl-4-piperidyl]benzamide] — 160-fold higher, 3980 nM
- [2H]C([2H])([2H])N(C(=O)c1ccc(C2=CCN(C(C)c3cc4c(-c5ccc(N)nc5C#N)ccnc4n3C)CC2)cc1)C([2H])([2H])[2H] (stereo in doubt) [Example 1af22, (R)-4-(1-(1-(4-(6-Amino-2-cyanopyridin-3-yl)-1-methyl-1H-pyrrolo[2,3-b]pyridin-2-yl)ethyl)-1,2,3,6-tetrahydropyridin-4-yl)-N,N-bis(methyl-d3)benzamide] — 260-fold higher, 6600 nM
- CC(=O)Nc1ccc(-c2ccnc3c2cc(CN2CCC(c4ccc(C(=O)N(C)C)cc4)CC2)n3C)c(C)n1 [Example 1k40, 4-[1-[[4-(6-Acetamido-2-methyl-3-pyridyl)-1-methyl-pyrrolo[2,3-b]pyridin-2-yl]methyl]-4-piperidyl]-N,N-dimethyl-benzamide] — 19-fold higher, 475 nM
- COC(=O)c1cc(-c2ccnc3c2cc(CN2CCC(c4ccc(C(=O)N(C)C)cc4)CC2)n3C)cnc1N [Example 1k10, Methyl 2-amino-5-[2-[[4-[4-(dimethylcarbamoyl)phenyl]-1-piperidyl]methyl]-1-methyl-pyrrolo[2,3-b]pyridin-4-yl]pyridine-3-carboxylate] — 100-fold higher, 2630 nM
- [2H]C([2H])([2H])N(C(=O)c1ccc(C2=CCN([C@@H](C)c3cc4c(-c5ccc(N)nc5C#N)ccnc4n3C)CC2)c(C)c1)C([2H])([2H])[2H] [Example 1af25, (S)-4-(1-(1-(4-(6-amino-2-cyanopyridin-3-yl)-1-methyl-1H-pyrrolo[2,3-b]pyridin-2-yl)ethyl)-1,2,3,6-tetrahydropyridin-4-yl)-3-methyl-N,N-bis(methyl-d3)benzamide] — 14-fold higher, 361 nM
- C[C@@H]1C[C@@H](c2ccc(C(=O)N(C)C)cc2)CCN1Cc1cc2c(-c3ccc(N)nc3C#N)ccnc2n1C (single isomer, unassigned) [Example 1q3] — 170-fold higher, 4240 nM
- CNc1ccc(-c2ccnc3c2cc(CN2CC[C@H](c4ccc(C(=O)N(C)C)cc4)C[C@@H]2C)n3C)nc1 [Example 1o27, N,N-dimethyl-4-((2S,4S)-2-methyl-1-((1-methyl-4-(5-(methylamino)-pyridin-2-yl)-1H-pyrrolo[2,3-b]pyridin-2-yl)methyl)piperidin-4-yl)benzamide] — 5.8-fold higher, 147 nM
- CN(C)C(=O)c1ccc(C2CCN(Cc3cc4c(-c5cnc(N)c(-c6nnn[nH]6)c5)ccnc4n3C)CC2)cc1 [Example 1k64, 4-[1-[[4-[6-Amino-5-(2H-tetrazol-5-yl)-3-pyridyl]-1-methyl-pyrrolo[2,3-b]pyridin-2-yl]methyl]-4-piperidyl]-N,N-dimethyl-benzamide] — 67-fold higher, 1700 nM
